Measurements: paper PMC2890037 (Biochemistry, 2010)
Residue numbers refer to the chain shown, from its start.

Legend:
Type in all cases: biochemical
[1] = molecular target: T1, triosephosphate isomerase (TIM), wildtype yeast (Saccharomyces cerevisiae, UniProt P00942); experiment: steady-state kinetics of isomerization; details: read-out: Km ^b mM
T1 sequence (P00942 2-248): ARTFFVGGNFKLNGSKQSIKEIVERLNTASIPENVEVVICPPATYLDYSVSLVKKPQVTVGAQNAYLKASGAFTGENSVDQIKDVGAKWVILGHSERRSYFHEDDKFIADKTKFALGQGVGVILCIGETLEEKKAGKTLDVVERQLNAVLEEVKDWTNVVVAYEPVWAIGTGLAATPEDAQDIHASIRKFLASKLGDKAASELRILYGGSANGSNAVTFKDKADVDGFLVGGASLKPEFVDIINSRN

[2] = molecular target: T2, triosephosphate isomerase (TIM), K12G mutant yeast (Saccharomyces cerevisiae, UniProt P00942, K12G)
T2 sequence (P00942 2-248 K12G): T1 sequence (P00942 2-248) with K11G

[3] = molecular target: T1, triosephosphate isomerase (TIM), wildtype yeast

SMILES	Km [1]	Ki [2]	Ki [3]
O=C[C@H](O)COP(=O)(O)O [GAP, (R)-glyceraldehyde 3-phosphate]	1.1 ± 0.2 mM		
O=C(O)COP(=O)(O)O [PGA, 2-phosphoglycolate]		1100 ± 200 µM	19 ± 4 µM
